From patent US20050196753A1, “Human coactivator-associated arginine methyltransferase 1 (hCARM1)” (priority 2002, published 2005)

Molecular target: T1, hCARM1 (Homo sapiens, UniProt Q86X55)
T1 construct: evaluate whether the cloned full-length hCARM1 had methylating activity; made in house; host or cells: baculovirus infected insect cells
T1 sequence (Q86X55 1-608): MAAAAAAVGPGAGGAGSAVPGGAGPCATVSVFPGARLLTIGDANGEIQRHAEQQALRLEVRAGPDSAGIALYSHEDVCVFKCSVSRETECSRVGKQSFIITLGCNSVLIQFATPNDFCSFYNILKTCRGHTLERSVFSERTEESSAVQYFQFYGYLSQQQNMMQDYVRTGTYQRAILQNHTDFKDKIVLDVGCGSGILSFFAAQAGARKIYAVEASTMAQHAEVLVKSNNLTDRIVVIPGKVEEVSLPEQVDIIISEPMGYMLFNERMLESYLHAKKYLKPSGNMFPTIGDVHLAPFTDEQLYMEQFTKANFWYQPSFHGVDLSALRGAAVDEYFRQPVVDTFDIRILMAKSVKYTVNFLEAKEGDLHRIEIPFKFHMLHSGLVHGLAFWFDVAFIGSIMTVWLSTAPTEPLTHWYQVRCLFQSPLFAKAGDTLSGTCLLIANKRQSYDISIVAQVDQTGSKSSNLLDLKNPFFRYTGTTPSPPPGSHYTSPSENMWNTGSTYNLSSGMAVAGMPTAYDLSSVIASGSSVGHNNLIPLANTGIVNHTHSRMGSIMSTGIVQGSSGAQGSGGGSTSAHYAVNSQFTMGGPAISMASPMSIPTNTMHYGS
Test: Methylation assay: inhibition of hCARM1 mediated methylation of Histone H3
Type: biochemical
Settings: Histone H3 substrate, 30° C. for 1 hr, SDS-PAGE/film
Protocol: Methylation assay protocol: Reactions were performed in IX methylation buffer containing 20 mM Tris.HCl, pH 8.0, 200 mM NaCl and 0.4 mM EDTA. Reactions were assembled with 2.5 ug of Histone H3 and increasing amounts of hCARM1 (0.25 ug, 0.5 ug, 1.25 ug, 2.5 ug, 3.75 ug, 5 ug, or 7.5 ug). A mock reaction where hCARM1 was omitted was used as the negative control. Reactions were incubated at 30° C. for 1 hr. prior to loading on a 10-20% gradient SDS-PAGE. The gel was fixed, dried and exposed to film.
A methylation reaction was performed in order to evaluate whether the cloned full-length hCARM1 had methylating activity. Mouse CARM1 has been previously shown to specifically methylate Histone H3 in vitro and in vivo.

- inhibition of hCARM1 mediated methylation: effectively inhibited
Compound: N[C@@H](CCS)C(=O)O [homocysteine]
